# Results: patent publication US9302996B2, “Continuous arycyclic compound” (MITSUBISHI TANABE PHARMA CORPORATION, priority 2010, dated 2016)
# What was measured:
# ICR mice = assay: Triglyceride (TG) in blood plasma increase-inhibiting action due to lipid administration; assay type: in vivo; settings: Mus musculus; male ICR mice, 5 mg/kg oral, lipid (Intralipos 20%) after 30 minutes, plasma TG 2 hours after lipid; read-out: Inhibiting rate of TG-increase in blood plasma (5 mg/kg)
# Method: 6 to 9 weeks-old male ICR mice were fasted overnight, and Test compound suspended in 0.2% carboxymethyl cellulose solution was orally administered to the mice. A lipid (Intralipos 20%, OTSUKA PHARMACEUTICAL CO., LTD., 10 mL/kg) was orally administered after 30 minutes. Blood was collected from tail vein immediately before the lipid administration, and after 2 hours from the same to obtain blood plasma. Measurement of TG in blood plasma was carried out by using a triglyceride E Test Wako (Wako Pure Chemical Industries, Ltd.), and an increased value of TG in blood plasma by administration of the lipid was calculated. An increased value of TG in blood plasma in a solvent control group was used as a control, and an inhibiting rate in increase of TG in blood plasma in the Test compound administered group was calculated.
# C57BL/6J mice = assay: Antifeeding activity (high fat diet intake up to 4 hours); assay type: in vivo; settings: Mus musculus, male C57BL/6J mice, 5 mg/kg oral, food ingested up to 4 hours, read-out: Antifeeding rate (5 mg/kg)
# Method: 7 to 10 weeks-old male C57BL/6J mice were fasted overnight, and the test compound suspended in 0.2% carboxymethylcellulose solution was orally administered. Immediately after the administration, high fat diet (Oriental Yeast Co., Ltd, 60 cal % fat) was provided and freely fed. An amount of food ingested up to 4 hours was measured, and a lowering rate (an antifeeding rate) of the amount of food ingested in the Test compound administered group was calculated as compared to that of the solvent control group as a control.
Structure (SMILES),inhibition in vivo at 5 mg/kg (ICR mice) [%],inhibition in vivo at 5 mg/kg (C57BL/6J mice) [%]
CC(C)(COc1ccc(-c2ccc(-c3ncc(CCC4CC4)[nH]3)cn2)cc1)C(=O)O [Example 30],60,68
CC(C)(COc1ccc(-c2ccc(-c3ncc(C4CCCCCC4)[nH]3)cn2)cc1)C(=O)O [Example 31],86,65
CCCc1cnc(-c2ccc(-c3ccc(OCC(C)(C)C(=O)O)cc3)nc2)[nH]1 [Example 32],71,42
"Cc1cc(-c2ccc(OCC(C)(C)C(=O)O)cc2)ncc1-c1ncc(C2(C(F)(F)F)CC2)[nH]1 [Example 35-3), 2,2-dimethyl-3-[4-(4-methyl-5-{5-[1-(trifluoromethyl)cyclopropyl]-1H-imidazol-2-yl}pyridin-2-yl)phenoxy]-propanoic acid]",54,56
Cc1cc(OCC(C)(C)C(=O)O)ncc1-c1ccc(-c2ncc(C(C)(C)C(F)(F)F)[nH]2)nc1 [Example 47],72,44
CC(C)(COc1cnc(-c2ccc(-c3ncc(C4(C(F)(F)F)CC4)[nH]3)cc2)cn1)C(=O)O [Example 49],48,58
CC(C)(COc1ccc(-c2ccc(-c3ncc(C4CCCCC4)[nH]3)cn2)cc1)C(=O)O [Example 56],61,76
"CCc1cnc(-c2ccc(-c3ccc(OCC(C)(C)C(=O)O)cc3)nc2)[nH]1 [Example 58-2), 3-[4-[5-(5-ethyl-1H-imidazol-2-yl)-2-pyridyl]phenoxy]-2,2-dimethylpropanoic acid]",64,65
CC(C)Cc1cnc(-c2ccc(-c3ccc(OCC(C)(C)C(=O)O)nc3)nc2)[nH]1 [Example 59],74,50
"O=C(O)C1(COc2ccc(-c3ccc(-c4ncc(C(F)(F)F)[nH]4)cn3)cc2)CC1 [Example 60-3), 1-[[4-[5-[5-(trifluoromethyl)-1H-imidazol-2-yl]-2-pyridyl]phenoxy]methyl]cyclopropanecarboxylic acid]",48,59
CC(C)(COc1ccc(-c2ccc(-c3ncc(C(F)(F)F)[nH]3)cn2)c(F)c1)C(=O)O [Example 64],60,78
CC(C)(COc1ccc(-c2ccc(-c3ncc(C(F)(F)F)[nH]3)cn2)cc1)CC(=O)O [Example 65],75,79
CC(C)(COc1ncc(-c2ccc(-c3ncc(C(F)(F)F)[nH]3)cc2)cn1)C(=O)O [Example 67],70,58
CC(C)(COc1ccc(-c2ccc(-c3ncc(C(F)(F)F)[nH]3)nc2)cc1)C(=O)O [Example 68],64,63
Cc1cc(OCC2(C(=O)O)CC2)ccc1-c1ccc(-c2ncc(C(F)(F)F)[nH]2)cn1 [Example 71],50,29
CC(C)(COc1ncc(-c2ccc(-c3ncc(C(F)(F)F)[nH]3)c(Cl)c2)cc1F)C(=O)O [Example 82],47,42
"CCc1cc(OCC(C)(C)C(=O)O)ccc1-c1ccc(-c2ncc(C(F)(F)F)[nH]2)cn1 [Example 85-4), 3-(3-ethyl-4-{5-[5-(trifluoromethyl)-1H-imidazol-2-yl]pyridin-2-yl}phenoxy)-2,2-dimethylpropanoic acid]",69,70
"COc1cc(OCC(C)(C)C(=O)O)ccc1-c1ccc(-c2ncc(C(F)(F)F)[nH]2)cn1 [Example 86-3), 3-[3-methoxy-4-[5-[5-(trifluoromethyl)-1H-imidazol-2-yl]-2-pyridyl]phenoxy]-2,2-dimethylpropanoic acid]",68,21
"CC(C)(COc1ccc(-c2ccc(-c3ncc(C4(C(F)(F)F)CCC4)[nH]3)cn2)cc1)C(=O)O [Example 88-3), sodium 2,2-dimethyl-3-[4-(5-{5-[1-(trifluoromethyl)cyclobutyl]-1H-imidazol-2-yl}pyridin-2-yl)phenoxy)propanoate]",65,55
CC(C)(COc1ncc(-c2ccc(-c3ncc(C(F)(F)F)[nH]3)cc2)cc1F)C(=O)O [Example 90],83,75
